Results as given in patent US7135472B2, “3-Heterocyclic benzylamide derivatives as potassium channel openers” (Bristol-Myers Squibb Company, priority 2002, dated 2006).

What was measured:
mKCNQ2 channels = target: T1, mKCNQ2 channels (Mus musculus, UniProt Q9Z351); experiment: KCNQ whole-cell patch-clamp recordings, HEK 293 stable cell line expressing mKCNQ2 channels; type: cell-based; details: mKCNQ2 currents, HEK 293, whole-cell patch clamp; for Imax (%): Hill fit maximum current; for EC50: at −40 mV
T1 construct: expressed in transfected cells
Procedure: Whole-cell patch-clamp recordings were made from an HEK 293 stable cell line expressing mKCNQ2 channels, maintained in culture for 1–2 days. Patch pipettes had initial resistances of 2.5–4 MΩ. Currents were recorded with an EPC-9 amplifier (HEKA, Lambrecht, Germany) controlled with software (Pulse, HEKA) run on a standard lab PC. Series resistance compensation was used during current recording, and set at 80%. The series resistance (R) and cell capacitance (C) were determined electronically by subtracting the capacitive currents at the onset and offset of a 5 mV voltage step. The cancellation of whole-cell capacitive transients was virtually complete in all cells. Analog current signals were low-pass filtered at 2.9 kHz using a four-pole Bessel filter −3 dB) and stored on a local network server computer at a sampling rate of […]. All recordings were performed at room temperature (20–22° C.). The pipette solution contained (mM): KCl, 150; CaCl2, 2.5; EGTA, 5; MgCl2, 1; HEPES, 10; pH to 7.3 with KOH, and Osmolality of 290–300 mOsm. The extracellular solution contained (mM): NaCl, 140; KCl, 2.5; CaCl2, 2.5; MgCl2, 1; glucose, 10; HEPES, 10; pH to 7.3 with NaOH, and Osmolality of 305–310 mOsm
Concentration response data were generated by measuring the difference in the steady-state amplitude of current in the presence of compound at the end of a 600 ms voltage-clamp step from a holding potential of −80 mV. The concentration-response data were fitted with Hill-type equations: I=Imax/(1+EC50/[A]^nH), where I is the steady-state current at a given concentration of agonist [A]; and Imax, EC50 and nH are parameters estimated from the curve fit. In some cases the concentration-response data were fitted with equations consisting of the sum of two Hill-type components. Current-voltage (I/V) relationships for agonist-evoked currents were obtained by performing 600 ms voltage steps (−110 mV to +40 mV) in the absence and presence of agonist.

[1] = test system: peripheral mononeuropathy nerve injury-induced tactile allodynia; experiment: Chung model of neuropathic pain (Chung surgery and von Frey test); type: in vivo, male Sprague Dawley rats; details: i.v., rat, von Frey thresholds over 90 min post-drug, % MPE (Drug AUC) − % MPE (Vehicle AUC)
Procedure: To test agents for activity against peripheral mononeuropathy nerve injury-induced tactile allodynia, male Sprague Dawley rats (wt. 120–160 g) were surgically prepared with unilateral tight ligation of spinal nerves L5 and L6 following the method of Kim and Chung (Kim S. H., Chung J. M. (1992) Pain, September; 50(3):355–63). After 3–4 weeks recovery, paw withdrawal to light touch was assessed as described by Chaplan et al. (Chaplan S. R., et al., (1994) J. Neurosci Methods, July; 53(1):55–63). In brief, rats are placed in a plastic cage with a wire mesh bottom and allowed to acclimate for 15–30 minutes, until cage exploration and grooming stops. […] After acclimation, baseline von Frey thresholds were assessed for the injured hindpaw at −15 min. […] Following drug administration, von Frey thresholds are measured at 15, 30, 60 and 90 min. Data were analyzed by a 2-way repeated measures analysis of variance followed by Dunnett's test (p<0.05). […]
Reversal of neuropathic pain behavior may be expressed as a percentage (0–100%) of the maximum possible effect, over and above the vehicle effects. […]
For example, a compound which immediately reversed neuropathic pain behavior to normal levels, such that animals only responded to the highest von Frey filament (15 g), and maintained normal levels through out the post-drug testing period (90 min) would be calculated as Δ%MPE=100%.

SMILES	Imax (%) (mKCNQ2 channels)	EC50 (mKCNQ2 channels)	AUC (Δ % MPE) ([1]; 3 mg/kg)	AUC (Δ % MPE) ([1]; 100 mg/kg)
C[C@H](NC(=O)/C=C/c1ccccc1F)c1cccc(-n2cccn2)c1 [Example 4, (S)-3-(2-Fluoro-phenyl)-N-[1-(3-pyrazol-1-yl-phenyl)-ethyl]-acrylamide]	1158%	0.123 µM	24 (3 mg/kg, i.v.) Δ % MPE	–
C[C@H](NC(=O)CCCc1ccccc1)c1cccc(-c2cccnc2)c1 [Example 17, (S)-4-Phenyl-N-[1-(3-pyridin-3-yl-phenyl)-ethyl]-butyramide]	172%	0.0007 µM	–	–
C[C@H](NC(=O)C=Cc1ccccc1)c1cccc(-n2cccn2)c1 [Example 31, (S)-3-Phenyl-N-[1-(3-pyrazol-1-yl-phenyl)-ethyl]-acrylamide]	3364%	1.24 µM	–	–
NCC1(CC(=O)O)CCCCC1 [Gabapentin, gabapentin, reference compound]	–	–	–	50 (100 mg/kg, i.v.) Δ % MPE
